Entries after “also recorded” stand apart in the source; their conditions may differ.
Columns and labels:
[1] = system: AML12 hepatocytes; experiment: Intracellular NAD+ levels in AML12 hepatocytes after NRH or NR treatment (dose-response, time course); type: cell-based
Excerpt: (§1) Levels of NRH and other NAD-related metabolites in biological samples were obtained by using a cold liquid-liquid extraction using a mixture of methanol:water:chloroform in 5:3:5 (v/v), from which the polar phase was recovered for hydrophilic interaction ultra-high performance liquid chromatography mass spectrometry (UHPLC-MS) analysis. The UHPLC consisted of a binary pump, a cooled autosampler, and a column oven (DIONEX Ultimate 3000 UHPLC+ Focused, Thermo Scientific), connected to a triple quadrupole spectrometer (TSQ Vantage, Thermo Scientific) equipped with a heated electrospray ionisation (H-ESI) source. Of each sample, 2 μL were injected into the analytical column (2.1 mm×150 mm, 5 μm pore size, 200 Å HILICON iHILIC®-Fusion(P)), guarded by a pre-column (2.1 mm×20 mm, 200 Å HILICON iHILIC®-Fusion(P) Guard Kit) operating at 35° C. The mobile phase (10 mM ammonium acetate at pH 9, A, and acetonitrile, B) was pumped at 0.25 mL/min flow rate over a linear gradient of decreasing organic solvent (0.5-16 min, 90-25% B), followed by re-equilibration for a total run time of 30 min. The MS operated in positive mode at 3500 V with multiple reaction monitoring (MRM). The software Xcalibur v4.1.31.9 (Thermo Scientific) was used for instrument control, data acquisition and processing. Retention time and mass detection was confirmed by authentic standards.
Even at such relatively low dose, NRH achieved similar increases in intracellular NAD+ levels to those reached with NR at 50-fold higher concentrations.
NRH actions were also extremely fast (FIG. 3), as significant increases in NAD+ levels were observed within 5 minutes after NRH treatment.

[2] = system: 3T3 fibroblasts; experiment: NAD+ levels in 3T3 fibroblasts after NRH treatment; type: cell-based
Procedure: The ability of NRH to potently increase NAD+ was tested as well in other cell type models.

[3] = molecular target: NAMPT (Mus musculus, UniProt Q99KQ4); experiment: NRH action in presence of NAMPT inhibitor FK866; type: cell-based; settings: FK866, a NAMPT inhibitor
[4] = molecular target: T1, adenosine kinase (AK) (Mus musculus, UniProt P55264); experiment: NRH-induced NAD+ synthesis under adenosine kinase inhibition (5-IT, ABT-702); type: cell-based
T1 construct: endogenous in cells; host or cells: AML12 cells
Procedure: AML12 cells were treated with an adenosine kinase inhibitor (5-IT; […]) for 1 hour prior to NRH treatment at the doses indicated. Then, 1 hour later, acidic extracts were obtained to measure NAD^+ levels. All values in the figure are expressed as mean +/−SEM of 3 independent experiments. * indicates statistical difference at p<0.05 vs. the respective vehicle treated group.
Considering the molecular structure of NRH, we reasoned that an alternative nucleoside kinase could be responsible for the phosphorylation of NRH. Confirming this expectation, the adenosine kinase (AK) inhibitor 5-iodotubercidin (5-IT) fully ablated the action of NRH. […] Metabolomic analyses further confirmed that upon inhibition of AK, the generation of NMNH, NADH and NAD+ was fully blunted, even if NRH was effectively entering the cell.

[5] = system: NMNAT; experiment: NRH-induced NAD+ synthesis under NMNAT inhibition with gallotannin; type: cell-based
Excerpt: As a follow-up step, NMNAT enzymes could catalyze the transition from NMNH to NADH.

[6] = Stability of NRH or NR spiked in isolated mouse plasma; type: in vitro ADME
Excerpt: as §1
NR degradation to NAM has been proposed as a limitation for its pharmacological efficacy. To evaluate whether NRH was also susceptible to degradation to NAM, we spiked NRH or NR in isolated mouse plasma. […] We also tested the stability of NRH in other matrixes.

[7] = system: NAD+ levels in liver, muscle and kidney; experiment: Tissue NAD+ levels after intraperitoneal injection of NR or NRH; type: in vivo, mice; settings: IP 500 mg/kg, after 1 h
Procedure: (§2) The above results prompted us to test whether NRH could act as an effective NAD+ precursor in vivo. For this, we first intraperitoneally (IP) injected mice with either NR or NRH (500 mg/kg).

[8] = Circulating NAM, NRH and NR after intraperitoneal injection; type: in vivo, mice; settings: mouse, in vivo, ip
Excerpt: as §1, §2

[9] = system: NAD+ levels in liver, skeletal muscle and kidney; experiment: Tissue NAD+ levels after oral gavage of NR or NRH; type: in vivo, C57BI/6NTac mice
Procedure: 8 week-old C57BI/6NTac mice were orally gavaged with either saline (as vehicle), NR (500 mg/kg) or NRH (500 mg/kg). After 1 hour, liver, skeletal muscle and kidney NAD^+ levels were evaluated. All results are expressed as mean +/−SEM of n=5 mice per group. * indicates statistical difference at p<0.05 vs. vs. saline-treated mice. # indicates statistical difference at p<0.05 vs. NR treated mice.
Oral administration of NRH led to very similar results to those observed after IP administration. […] In contrast, NR levels were undetectable at 1 h after NR administration. As expected, NR treatment led to large increases in circulating NAM, which where ˜4-fold higher than those observed after NRH treatment.

T1 sequence (P55264 whole entry): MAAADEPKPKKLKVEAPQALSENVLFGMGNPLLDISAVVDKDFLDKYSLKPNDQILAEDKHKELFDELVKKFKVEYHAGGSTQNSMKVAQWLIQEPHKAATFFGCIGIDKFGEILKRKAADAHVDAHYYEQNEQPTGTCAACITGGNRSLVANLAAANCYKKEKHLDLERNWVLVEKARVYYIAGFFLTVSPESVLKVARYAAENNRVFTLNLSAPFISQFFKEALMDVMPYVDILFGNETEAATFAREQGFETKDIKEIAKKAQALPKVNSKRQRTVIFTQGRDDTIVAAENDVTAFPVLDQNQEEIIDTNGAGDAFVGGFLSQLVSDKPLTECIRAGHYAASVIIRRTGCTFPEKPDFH
NAMPT, sequence (Q99KQ4 whole entry): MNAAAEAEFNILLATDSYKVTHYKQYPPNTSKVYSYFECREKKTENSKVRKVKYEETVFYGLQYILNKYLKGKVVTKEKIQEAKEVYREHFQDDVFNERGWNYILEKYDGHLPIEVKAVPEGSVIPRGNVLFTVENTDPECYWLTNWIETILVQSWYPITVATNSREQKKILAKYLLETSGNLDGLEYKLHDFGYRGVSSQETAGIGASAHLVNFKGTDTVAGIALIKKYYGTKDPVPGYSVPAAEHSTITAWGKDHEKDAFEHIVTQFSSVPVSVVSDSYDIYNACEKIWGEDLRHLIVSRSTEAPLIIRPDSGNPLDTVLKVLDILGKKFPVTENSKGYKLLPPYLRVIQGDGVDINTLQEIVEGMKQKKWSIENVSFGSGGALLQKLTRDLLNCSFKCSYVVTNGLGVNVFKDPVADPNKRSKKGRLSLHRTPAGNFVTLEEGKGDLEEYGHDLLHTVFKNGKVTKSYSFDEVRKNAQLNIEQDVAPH

NC(=O)C1=CN([C@@H]2O[C@H](CO)[C@@H](O)[C@H]2O)C=CC1 [NRH, dihydro-1-beta-D-ribofuranosyl-3-pyridinecarboxamide]
ability to increase intracellular NAD+ compared with NR ([1]; AML12 hepatocytes): superior to that of NR
time to significant increases in NAD+ levels after treatment ([1]; AML12 hepatocytes): ≤ 5 min
increase in intracellular NAD+ levels at maximal effect ([1]; NRH around the millimolar range): more than 10 fold
fold higher NR concentration needed for similar increases in intracellular NAD+ levels ([1]; NRH at 10 μM vs NR): 50 fold
concentration of maximal effects on NAD+ synthesis ([1]; dose-response): around the millimolar range
concentration at which NAD+ levels are significantly increased ([1]; dose-response, AML12 hepatocytes): 10 µM
NAD+ levels [2]: highly elevated NAD+ levels
dependence of NRH action on NAMPT [3]: NAMPT-independent
formation of NR and NMN after NRH treatment with 5-IT ([4]; 5-IT treatment): prevented the formation of NR and NMN
action of NRH on NAD+ in presence of AK inhibitor 5-iodotubercidin (5-IT) ([4]; AML12 cells, 5-IT 10 mM for 1 hour prior to NRH, NAD+ 1 hour later): fully ablated; also recorded: adenosine kinase dependent path
generation of NMNH, NADH and NAD+ upon inhibition of AK ([4]; metabolomic analyses): fully blunted
NRH-mediated NAD+ synthesis in presence of AK inhibitor ABT-702 ([4]; second, structurally different AK inhibitor): role of AK in NRH-mediated NAD+ synthesis was confirmed
NAD+ synthesis after NRH treatment in presence of gallotannin ([5]; NRH at maximal doses (0.5 mM)): largely compromised NAD+ synthesis; also recorded: part of the NRH action remained
NRH action in presence of gallotannin ([5]; NRH at submaximal doses): totally blocked by gallotannin
NR production on incubation in isolated plasma [6]: did not lead to NR production
NAD+ levels in kidney [7]: increased NAD+ levels
NAD+ levels in liver [7]: increased NAD+ levels
NAD+ levels in muscle [7]: increased NAD+ levels
NR in circulation after NRH treatment [8]: detectable in circulation after NRH treatment at much higher levels than those detected after NR injection itself
NRH in circulation [8]: detectable in circulation
NAM levels in circulation ([8]; 500 mg/kg): only a very mild increase
effect on hepatic NAD+ levels ([9]; oral administration, compared with NR): more potent effect on hepatic NAD+ levels than NR
NAD+ precursor activity in liver, muscle and kidney ([9]; oral gavage 500 mg/kg, after 1 hour (FIG. 5)): orally active NAD+ precursor in liver, muscle and kidney
